Legend:
[1] = target: T1, αVβ3 integrin (293-β3 cells) (Homo sapiens, UniProt P05106+P06756); assay: 293-β3 cell adhesion assay (adhesion to immobilized vitronectin); type: cell-based; conditions: 200 uM Mn2+, read-out: 293-β3 (IC50 <10 μM)
T1 construct: expressed in transfected cells; host or cells: 293 human embryonic kidney cells (293-β3)

[2] = target: T2, αVβ6 (HT-29 human colon carcinoma cells) (Homo sapiens, UniProt P06756+P18564); assay: HT-29 cell adhesion assay (adhesion to immobilized LAP); type: cell-based; conditions: selectivity ratio: IC50 αVβ6 (HT-29) over IC50 β3
T2 construct: endogenous in cells; host or cells: HT-29 human colon carcinoma cells
T2 sequence (P06756 31-889 limits assumed): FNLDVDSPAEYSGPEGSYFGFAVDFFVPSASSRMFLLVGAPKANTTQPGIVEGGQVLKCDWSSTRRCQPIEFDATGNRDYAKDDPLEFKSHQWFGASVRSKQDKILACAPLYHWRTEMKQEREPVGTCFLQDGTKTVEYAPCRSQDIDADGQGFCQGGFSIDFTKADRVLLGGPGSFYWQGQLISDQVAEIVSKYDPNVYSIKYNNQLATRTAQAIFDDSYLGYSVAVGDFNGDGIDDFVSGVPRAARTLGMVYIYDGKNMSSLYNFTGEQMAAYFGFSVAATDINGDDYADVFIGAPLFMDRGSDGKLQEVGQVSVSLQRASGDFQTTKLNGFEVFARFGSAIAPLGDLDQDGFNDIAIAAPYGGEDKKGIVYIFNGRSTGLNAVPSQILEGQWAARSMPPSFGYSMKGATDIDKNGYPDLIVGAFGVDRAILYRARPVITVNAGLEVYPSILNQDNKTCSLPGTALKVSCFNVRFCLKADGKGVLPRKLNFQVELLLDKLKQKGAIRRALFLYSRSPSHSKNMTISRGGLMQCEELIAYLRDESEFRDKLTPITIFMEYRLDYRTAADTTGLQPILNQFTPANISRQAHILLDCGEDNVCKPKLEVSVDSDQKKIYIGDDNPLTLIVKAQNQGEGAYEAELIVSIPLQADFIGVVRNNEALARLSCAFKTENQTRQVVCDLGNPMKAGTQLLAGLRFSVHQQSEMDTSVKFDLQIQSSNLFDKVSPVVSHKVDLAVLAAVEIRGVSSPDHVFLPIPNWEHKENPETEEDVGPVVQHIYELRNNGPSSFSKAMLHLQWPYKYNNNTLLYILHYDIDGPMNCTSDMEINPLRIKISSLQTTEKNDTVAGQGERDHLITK
T2 sequence (P06756 891-1048 partner limits assumed): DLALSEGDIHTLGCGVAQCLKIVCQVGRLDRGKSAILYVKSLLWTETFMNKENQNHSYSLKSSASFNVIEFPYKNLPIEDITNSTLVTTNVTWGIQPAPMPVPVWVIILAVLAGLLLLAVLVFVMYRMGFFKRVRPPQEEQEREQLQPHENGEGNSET
T2 sequence (P18564 22-788): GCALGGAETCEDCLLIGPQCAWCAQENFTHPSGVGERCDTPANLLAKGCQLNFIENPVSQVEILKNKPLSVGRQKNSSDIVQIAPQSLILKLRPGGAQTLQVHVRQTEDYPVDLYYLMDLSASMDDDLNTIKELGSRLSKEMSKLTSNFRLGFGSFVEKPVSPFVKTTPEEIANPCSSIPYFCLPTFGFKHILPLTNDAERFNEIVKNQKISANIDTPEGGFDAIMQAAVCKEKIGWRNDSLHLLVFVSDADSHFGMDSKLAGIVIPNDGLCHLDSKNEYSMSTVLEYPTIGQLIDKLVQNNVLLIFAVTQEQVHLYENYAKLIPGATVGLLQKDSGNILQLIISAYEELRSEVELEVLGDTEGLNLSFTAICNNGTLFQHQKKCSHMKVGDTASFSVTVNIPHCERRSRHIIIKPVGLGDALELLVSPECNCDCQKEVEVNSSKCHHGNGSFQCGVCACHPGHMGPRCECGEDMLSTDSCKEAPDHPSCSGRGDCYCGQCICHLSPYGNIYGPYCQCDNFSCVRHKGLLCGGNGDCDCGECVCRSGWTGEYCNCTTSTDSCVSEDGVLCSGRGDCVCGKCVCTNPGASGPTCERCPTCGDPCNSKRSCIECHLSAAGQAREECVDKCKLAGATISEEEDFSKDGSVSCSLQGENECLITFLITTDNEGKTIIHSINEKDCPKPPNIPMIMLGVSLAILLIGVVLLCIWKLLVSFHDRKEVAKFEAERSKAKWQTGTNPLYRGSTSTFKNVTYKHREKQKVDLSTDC

[3] = target: T3, Human fibrinogen receptor (IIb/IIIa) (Homo sapiens, UniProt P05106+P08514); assay: Purified IIb/IIIa receptor assay (solid phase receptor assay, SPRA); type: binding; conditions: selectivity ratio: IC50 αIIbβ3 (solid phase receptor assay) over IC50 β3
T3 construct: Human fibrinogen receptor (IIb/IIIa) was purified from outdated platelets; from tissue; host or cells: outdated human platelets
T3 sequence (P08514 32-887 limits assumed): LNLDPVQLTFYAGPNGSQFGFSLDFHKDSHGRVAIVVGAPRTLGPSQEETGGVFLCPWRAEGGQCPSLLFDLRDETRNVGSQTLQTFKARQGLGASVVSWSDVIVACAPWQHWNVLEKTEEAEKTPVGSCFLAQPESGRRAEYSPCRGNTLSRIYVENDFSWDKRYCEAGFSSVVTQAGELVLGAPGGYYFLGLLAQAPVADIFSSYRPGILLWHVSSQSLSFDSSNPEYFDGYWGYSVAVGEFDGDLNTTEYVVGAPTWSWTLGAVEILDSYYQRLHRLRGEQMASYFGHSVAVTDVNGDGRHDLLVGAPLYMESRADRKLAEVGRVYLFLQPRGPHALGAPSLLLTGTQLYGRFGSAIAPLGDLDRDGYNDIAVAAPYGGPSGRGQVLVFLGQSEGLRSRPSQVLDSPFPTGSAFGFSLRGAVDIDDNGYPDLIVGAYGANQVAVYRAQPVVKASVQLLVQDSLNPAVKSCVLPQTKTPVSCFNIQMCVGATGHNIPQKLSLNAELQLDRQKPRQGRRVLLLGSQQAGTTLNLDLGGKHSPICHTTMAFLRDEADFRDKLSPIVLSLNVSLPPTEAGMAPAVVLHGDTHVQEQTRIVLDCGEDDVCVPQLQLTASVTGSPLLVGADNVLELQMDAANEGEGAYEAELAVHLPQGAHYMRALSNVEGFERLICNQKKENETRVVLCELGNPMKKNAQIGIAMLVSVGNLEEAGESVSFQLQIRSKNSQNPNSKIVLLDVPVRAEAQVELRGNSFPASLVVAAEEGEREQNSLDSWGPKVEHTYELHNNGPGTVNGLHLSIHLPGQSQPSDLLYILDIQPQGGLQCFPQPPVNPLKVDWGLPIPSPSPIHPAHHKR
T3 sequence (P08514 891-1039 partner limits assumed): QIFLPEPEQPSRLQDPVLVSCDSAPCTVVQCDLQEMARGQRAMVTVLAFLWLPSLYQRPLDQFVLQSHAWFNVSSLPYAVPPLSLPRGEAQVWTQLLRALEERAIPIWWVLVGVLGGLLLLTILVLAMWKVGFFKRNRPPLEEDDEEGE
T3 sequence (P05106 27-788): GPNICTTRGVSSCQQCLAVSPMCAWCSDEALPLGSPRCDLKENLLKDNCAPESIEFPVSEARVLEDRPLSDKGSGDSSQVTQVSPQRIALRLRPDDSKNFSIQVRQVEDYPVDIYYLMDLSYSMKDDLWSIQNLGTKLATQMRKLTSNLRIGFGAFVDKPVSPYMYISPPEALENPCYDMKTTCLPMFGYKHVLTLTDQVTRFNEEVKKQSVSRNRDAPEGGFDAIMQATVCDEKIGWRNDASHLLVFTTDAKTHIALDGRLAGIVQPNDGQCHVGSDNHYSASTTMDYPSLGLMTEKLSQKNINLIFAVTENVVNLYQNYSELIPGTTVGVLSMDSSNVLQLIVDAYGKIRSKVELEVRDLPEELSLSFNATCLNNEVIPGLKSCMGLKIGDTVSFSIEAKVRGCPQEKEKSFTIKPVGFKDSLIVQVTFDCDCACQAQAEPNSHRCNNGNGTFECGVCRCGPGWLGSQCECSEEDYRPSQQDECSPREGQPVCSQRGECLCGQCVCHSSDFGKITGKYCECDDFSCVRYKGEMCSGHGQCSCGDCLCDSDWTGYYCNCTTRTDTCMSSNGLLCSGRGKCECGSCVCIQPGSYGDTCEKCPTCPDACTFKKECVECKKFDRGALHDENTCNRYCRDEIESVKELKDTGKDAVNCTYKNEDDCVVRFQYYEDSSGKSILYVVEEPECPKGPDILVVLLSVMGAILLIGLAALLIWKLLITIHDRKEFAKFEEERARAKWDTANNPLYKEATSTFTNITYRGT
Summary of the method: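 Purified platelet IIb/IIIa coated at 100 ng/well in TBS with 1.0 mM Ca, Mg, Mn, pH 7.4, overnight at 4 °C, then BSA-blocked. Compounds (top 1.0×10^−4 M) competed 2 h at room temperature with 1 nM biotinylated vitronectin; bound ligand read via HRP anti-biotin/OPD at 450 nm, normalized to no-competitor controls, four-parameter fit.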

[4] = target: T4, Human vitronectin receptor αVβ3 (Homo sapiens, UniProt P05106+P06756); assay: Vitronectin adhesion assay (solid phase receptor assay); type: binding; conditions: positive control included on each plate; read-out: IC50 αVβ3 antagonist (positive control)
T4 construct: Human vitronectin receptors αVβ3 and αVβ5 were purified from human placenta; from tissue; host or cells: human placenta
T4 sequence (P06756 31-889 limits assumed): as the sequence (P06756 31-889 limits assumed) above
T4 sequence (P06756 891-1048 partner limits assumed): as the sequence (P06756 891-1048 partner limits assumed) above
T4 sequence (P05106 27-788): as the sequence (P05106 27-788) above
Procedure: Human vitronectin receptors αVβ3 and αVβ5 were purified from human placenta as previously described [Pytela et al., Methods in Enzymology, 144:475-489 (1987)]. Human vitronectin was purified from fresh frozen plasma as previously described [Yatohgo et al., Cell Structure and Function, 13:281-292 (1988)]. Biotinylated human vitronectin was prepared by coupling NHS-biotin from Pierce Chemical Company (Rockford, Ill.) to purified vitronectin as previously described [Charo et al., J. Biol. Chem., 266(3):1415-1421 (1991)]. Assay buffer, OPD substrate tablets, and RIA grade BSA were obtained from Sigma (St. Louis, Mo.). Anti-biotin antibody was obtained from Sigma (St. Louis, Mo.). Nalge Nunc-Immuno microtiter plates were obtained from Nalge Company (Rochester, N.Y.).
This assay was essentially the same as previously reported [Niiya et al., Blood, 70:475-483 (1987)]. […] The plate was read with a microtiter plate reader at a wavelength of 450 nm and when the maximum-binding control wells reached an absorbance of about 1.0, the final A450 were recorded for analysis. The data were analyzed using a macro written for use with the EXCEL spreadsheet program. The mean, standard deviation, and % CV were determined for duplicate concentrations. […]

T1 sequence (P06756 31-889 limits assumed): as the sequence (P06756 31-889 limits assumed) above
T1 sequence (P06756 891-1048 partner limits assumed): as the sequence (P06756 891-1048 partner limits assumed) above
T1 sequence (P05106 27-788): as the sequence (P05106 27-788) above

| Compound | IC50 [1] [µM] | HT-29 β-6 Selectivity* (β6/β3) [2] | SPRA AIIbB3 Selectivity* IIbIIIa/β3 [3] | IC50 [4] [µM] |
| --- | --- | --- | --- | --- |
| CC(C)(CC(=O)O)Cc1nc(CCCCNc2ccccn2)no1 [Example 62, β,β-dimethyl-3-[4-(2-pyridinylamino)butyl]-1,2,4-oxadiazole-5-butanoic acid] | < 10 | +++ (Selectivity Ratio >100 +++) | +++ (Selectivity Ratio >100 +++) | – |
| CC(CC(=O)O)Cc1nc(CCCCNc2ccccn2)no1.Cl (stereo not shown) [Example 69, 3-methyl-4-{3-[4-(pyridin-2-ylamino)butyl]-1,2,4-oxadiazol-5-yl}butanoic acid] | < 10 | +++ (Selectivity Ratio >100 +++) | ++ (Selectivity Ratio of 10-100 ++) | – |
| CC(CC(=O)O)Cc1nc(CCCc2ccc3c(n2)NCCC3)no1 (stereo not shown) [Example 70, 3-methyl-4-{3-[3-(5,6,7,8-tetrahydro-1,8-naphthyridin-2-yl)propyl]-1,2,4-oxadiazol-5-yl}butanoic acid] | < 10 | +++ (Selectivity Ratio >100 +++) | +++ (Selectivity Ratio >100 +++) | – |
| β-[[2-[[5-[(aminoiminomethyl)amino]-1-oxopentyl]amino]-1-oxoethyl]amino]-3-pyridinepropanoic acid | – | – | – | 0.003 to 0.01 |

— patent US6933304B2, “Heteroarylalkanoic acids as integrin receptor antagonists” (Pharmacia Corporation, priority 2000, dated 2005)
